Source: ChEMBL document CHEMBL5291721, “A preclinical secondary pharmacology resource illuminates target-adverse drug reaction associations of marketed drugs” (Nat Commun, 2023)

Experiments:
[1] = target: Voltage-gated inwardly rectifying potassium channel KCNH2 (Homo sapiens, UniProt Q12809); type: functional; conditions: read-out: AC50
Adenosine receptor A1 = target: T1, Adenosine receptor A1 (Homo sapiens, UniProt P30542)
T1 sequence (P30542 whole entry): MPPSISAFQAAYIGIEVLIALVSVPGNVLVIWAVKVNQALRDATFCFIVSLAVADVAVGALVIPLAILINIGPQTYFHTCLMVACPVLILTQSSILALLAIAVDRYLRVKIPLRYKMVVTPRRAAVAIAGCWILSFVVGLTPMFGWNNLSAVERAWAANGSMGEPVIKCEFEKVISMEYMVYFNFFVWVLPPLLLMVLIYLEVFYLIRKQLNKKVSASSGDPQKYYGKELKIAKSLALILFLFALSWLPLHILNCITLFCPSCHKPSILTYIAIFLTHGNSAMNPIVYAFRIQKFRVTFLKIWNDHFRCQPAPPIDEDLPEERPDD

[2] = target: T2, Cholecystokinin receptor type A (Homo sapiens, UniProt P32238)
T2 sequence (P32238 whole entry): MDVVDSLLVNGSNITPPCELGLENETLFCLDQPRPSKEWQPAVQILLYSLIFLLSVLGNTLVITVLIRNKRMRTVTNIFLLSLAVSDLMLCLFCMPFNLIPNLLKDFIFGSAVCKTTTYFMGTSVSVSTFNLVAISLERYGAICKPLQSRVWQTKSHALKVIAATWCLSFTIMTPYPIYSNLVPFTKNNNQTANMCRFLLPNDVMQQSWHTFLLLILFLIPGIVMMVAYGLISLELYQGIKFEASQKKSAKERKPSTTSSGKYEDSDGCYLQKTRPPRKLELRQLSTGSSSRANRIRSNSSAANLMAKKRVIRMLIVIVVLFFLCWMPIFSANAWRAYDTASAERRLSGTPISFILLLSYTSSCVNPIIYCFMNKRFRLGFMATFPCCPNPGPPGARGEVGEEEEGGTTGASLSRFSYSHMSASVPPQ

[3] = target: Neuronal acetylcholine receptor subunit alpha-4 (Homo sapiens, UniProt P43681)
[4] = target: Growth hormone secretagogue receptor type 1 (Homo sapiens, UniProt Q92847)
[5] = target: T3, Prostaglandin G/H synthase 1 (Rattus norvegicus, UniProt Q63921); type: functional
T3 sequence (Q63921 whole entry): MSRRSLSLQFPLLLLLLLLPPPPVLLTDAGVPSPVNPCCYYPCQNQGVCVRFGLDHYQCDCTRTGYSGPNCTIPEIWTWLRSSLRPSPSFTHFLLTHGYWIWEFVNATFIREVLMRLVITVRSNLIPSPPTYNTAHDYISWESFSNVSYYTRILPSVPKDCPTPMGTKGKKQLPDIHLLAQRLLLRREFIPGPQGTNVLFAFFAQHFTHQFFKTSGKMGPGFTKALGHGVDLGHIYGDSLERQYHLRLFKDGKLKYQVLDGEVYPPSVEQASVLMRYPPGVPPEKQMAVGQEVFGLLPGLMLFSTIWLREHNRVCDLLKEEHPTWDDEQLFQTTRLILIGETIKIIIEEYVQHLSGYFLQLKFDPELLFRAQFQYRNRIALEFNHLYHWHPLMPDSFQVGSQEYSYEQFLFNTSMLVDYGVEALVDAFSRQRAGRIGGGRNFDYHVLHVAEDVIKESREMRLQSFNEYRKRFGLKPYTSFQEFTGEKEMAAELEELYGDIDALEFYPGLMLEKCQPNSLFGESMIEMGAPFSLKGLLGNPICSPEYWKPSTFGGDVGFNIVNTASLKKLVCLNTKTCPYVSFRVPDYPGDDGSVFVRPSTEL

[6] = target: Sodium-dependent noradrenaline transporter (Homo sapiens, UniProt P23975)
Bile salt export pump = Bile salt export pump (Homo sapiens, UniProt O95342); type: functional
[7] = target: T4, Alpha-2A adrenergic receptor (Homo sapiens, UniProt P08913); type: functional, cell-based
T4 sequence (P08913 whole entry): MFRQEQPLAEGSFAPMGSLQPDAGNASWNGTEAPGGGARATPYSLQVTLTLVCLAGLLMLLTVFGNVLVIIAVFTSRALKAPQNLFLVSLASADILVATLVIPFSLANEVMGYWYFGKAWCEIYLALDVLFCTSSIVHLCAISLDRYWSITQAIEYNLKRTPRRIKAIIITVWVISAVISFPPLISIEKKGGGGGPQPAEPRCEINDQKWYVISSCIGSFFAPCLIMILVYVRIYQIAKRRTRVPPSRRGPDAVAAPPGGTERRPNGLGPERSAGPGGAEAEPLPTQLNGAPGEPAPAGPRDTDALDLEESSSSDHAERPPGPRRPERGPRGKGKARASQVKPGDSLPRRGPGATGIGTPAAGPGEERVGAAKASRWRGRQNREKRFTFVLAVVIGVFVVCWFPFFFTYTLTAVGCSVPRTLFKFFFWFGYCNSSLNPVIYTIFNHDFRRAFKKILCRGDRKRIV

[8] = target: T5, 5-hydroxytryptamine receptor 3A (Homo sapiens, UniProt P46098); type: functional
T5 sequence (P46098 whole entry): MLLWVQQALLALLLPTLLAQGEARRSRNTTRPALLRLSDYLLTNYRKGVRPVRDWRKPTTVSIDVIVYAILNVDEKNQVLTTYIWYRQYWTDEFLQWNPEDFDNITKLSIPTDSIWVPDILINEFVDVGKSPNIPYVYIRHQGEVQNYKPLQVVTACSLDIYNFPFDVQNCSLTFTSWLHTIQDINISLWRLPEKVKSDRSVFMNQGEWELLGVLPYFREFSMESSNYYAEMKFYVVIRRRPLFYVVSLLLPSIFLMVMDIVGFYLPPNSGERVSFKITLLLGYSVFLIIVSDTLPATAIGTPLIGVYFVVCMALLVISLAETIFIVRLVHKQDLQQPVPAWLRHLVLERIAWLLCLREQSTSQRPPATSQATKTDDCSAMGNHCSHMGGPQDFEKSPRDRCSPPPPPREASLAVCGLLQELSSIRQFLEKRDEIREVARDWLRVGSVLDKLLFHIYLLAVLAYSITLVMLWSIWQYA

[9] = target: Delta-type opioid receptor (Homo sapiens, UniProt P41143)
[10] = target: 3',5'-cyclic-AMP phosphodiesterase 4D (Homo sapiens, UniProt Q08499); type: functional
D(3) dopamine receptor = D(3) dopamine receptor (Homo sapiens, UniProt P35462)
[11] = target: 5-hydroxytryptamine receptor 2B (Homo sapiens, UniProt P41595); type: functional, cell-based
Note: assay procedure not described here.

Sequence of Delta-type opioid receptor (P41143 whole entry): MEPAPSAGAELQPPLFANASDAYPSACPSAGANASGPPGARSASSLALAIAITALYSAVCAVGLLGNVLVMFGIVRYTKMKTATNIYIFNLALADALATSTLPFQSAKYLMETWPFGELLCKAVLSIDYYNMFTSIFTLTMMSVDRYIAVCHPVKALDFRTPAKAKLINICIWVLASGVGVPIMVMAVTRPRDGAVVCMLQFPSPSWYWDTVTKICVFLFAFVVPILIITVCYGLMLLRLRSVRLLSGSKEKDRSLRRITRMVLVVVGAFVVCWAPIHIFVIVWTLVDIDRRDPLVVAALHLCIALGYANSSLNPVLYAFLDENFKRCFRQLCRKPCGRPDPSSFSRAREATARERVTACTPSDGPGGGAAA
Sequence of Voltage-gated inwardly rectifying potassium channel KCNH2 (Q12809 whole entry): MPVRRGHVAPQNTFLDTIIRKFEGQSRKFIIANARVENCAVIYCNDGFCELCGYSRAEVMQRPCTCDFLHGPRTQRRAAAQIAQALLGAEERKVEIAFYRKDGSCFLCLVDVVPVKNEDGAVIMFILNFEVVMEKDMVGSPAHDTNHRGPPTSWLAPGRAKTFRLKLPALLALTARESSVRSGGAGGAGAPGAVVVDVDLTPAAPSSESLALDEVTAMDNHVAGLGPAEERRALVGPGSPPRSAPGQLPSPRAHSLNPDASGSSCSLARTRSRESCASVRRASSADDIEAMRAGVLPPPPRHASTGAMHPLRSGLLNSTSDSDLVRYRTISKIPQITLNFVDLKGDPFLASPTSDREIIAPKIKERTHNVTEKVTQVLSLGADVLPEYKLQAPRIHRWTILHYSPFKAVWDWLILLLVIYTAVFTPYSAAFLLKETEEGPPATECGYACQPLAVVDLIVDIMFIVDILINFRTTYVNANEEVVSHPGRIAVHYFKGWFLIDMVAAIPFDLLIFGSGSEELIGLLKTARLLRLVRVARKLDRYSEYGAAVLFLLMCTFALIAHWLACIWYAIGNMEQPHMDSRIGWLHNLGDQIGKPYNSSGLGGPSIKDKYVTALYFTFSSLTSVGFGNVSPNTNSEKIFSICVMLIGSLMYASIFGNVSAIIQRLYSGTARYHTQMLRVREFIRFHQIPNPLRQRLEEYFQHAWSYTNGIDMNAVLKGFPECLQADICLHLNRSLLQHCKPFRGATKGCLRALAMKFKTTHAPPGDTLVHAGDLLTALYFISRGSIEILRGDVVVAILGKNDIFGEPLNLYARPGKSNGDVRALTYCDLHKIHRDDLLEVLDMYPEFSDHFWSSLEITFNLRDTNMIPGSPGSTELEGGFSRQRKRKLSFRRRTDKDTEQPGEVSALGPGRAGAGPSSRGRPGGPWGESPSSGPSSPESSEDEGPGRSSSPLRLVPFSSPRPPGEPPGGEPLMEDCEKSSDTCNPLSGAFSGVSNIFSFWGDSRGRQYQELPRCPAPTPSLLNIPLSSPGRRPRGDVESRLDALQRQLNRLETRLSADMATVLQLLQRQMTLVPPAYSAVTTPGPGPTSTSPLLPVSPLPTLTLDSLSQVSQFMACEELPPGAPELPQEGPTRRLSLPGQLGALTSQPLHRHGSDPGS
Sequence of Neuronal acetylcholine receptor subunit alpha-4 (P43681 whole entry): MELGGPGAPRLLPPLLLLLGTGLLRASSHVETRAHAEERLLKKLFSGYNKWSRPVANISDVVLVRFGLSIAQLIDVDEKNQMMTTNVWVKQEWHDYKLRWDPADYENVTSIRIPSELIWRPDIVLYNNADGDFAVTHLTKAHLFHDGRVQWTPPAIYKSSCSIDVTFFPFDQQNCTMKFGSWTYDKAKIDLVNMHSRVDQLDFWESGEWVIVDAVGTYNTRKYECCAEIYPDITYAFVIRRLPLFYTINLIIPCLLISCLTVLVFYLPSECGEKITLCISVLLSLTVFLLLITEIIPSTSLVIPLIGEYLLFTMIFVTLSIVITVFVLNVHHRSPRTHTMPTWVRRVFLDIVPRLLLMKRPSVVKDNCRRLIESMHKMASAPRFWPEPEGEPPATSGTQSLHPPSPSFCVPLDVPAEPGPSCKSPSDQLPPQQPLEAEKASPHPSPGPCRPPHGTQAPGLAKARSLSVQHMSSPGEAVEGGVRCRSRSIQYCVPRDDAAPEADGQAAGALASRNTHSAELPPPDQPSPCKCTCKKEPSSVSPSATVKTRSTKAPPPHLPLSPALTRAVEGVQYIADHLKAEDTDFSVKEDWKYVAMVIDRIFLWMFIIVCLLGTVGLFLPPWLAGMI
Sequence of Growth hormone secretagogue receptor type 1 (Q92847 whole entry): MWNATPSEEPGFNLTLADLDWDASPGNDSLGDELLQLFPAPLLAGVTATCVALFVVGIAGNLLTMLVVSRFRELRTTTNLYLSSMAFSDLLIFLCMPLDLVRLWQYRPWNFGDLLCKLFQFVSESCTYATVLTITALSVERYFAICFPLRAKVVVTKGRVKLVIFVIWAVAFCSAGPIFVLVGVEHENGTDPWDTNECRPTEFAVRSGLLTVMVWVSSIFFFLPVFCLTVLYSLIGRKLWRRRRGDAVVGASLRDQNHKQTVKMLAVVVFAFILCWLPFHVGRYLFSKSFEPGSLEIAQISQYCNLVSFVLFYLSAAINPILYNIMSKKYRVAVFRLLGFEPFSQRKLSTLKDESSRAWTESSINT
Sequence of 3',5'-cyclic-AMP phosphodiesterase 4D (Q08499 whole entry): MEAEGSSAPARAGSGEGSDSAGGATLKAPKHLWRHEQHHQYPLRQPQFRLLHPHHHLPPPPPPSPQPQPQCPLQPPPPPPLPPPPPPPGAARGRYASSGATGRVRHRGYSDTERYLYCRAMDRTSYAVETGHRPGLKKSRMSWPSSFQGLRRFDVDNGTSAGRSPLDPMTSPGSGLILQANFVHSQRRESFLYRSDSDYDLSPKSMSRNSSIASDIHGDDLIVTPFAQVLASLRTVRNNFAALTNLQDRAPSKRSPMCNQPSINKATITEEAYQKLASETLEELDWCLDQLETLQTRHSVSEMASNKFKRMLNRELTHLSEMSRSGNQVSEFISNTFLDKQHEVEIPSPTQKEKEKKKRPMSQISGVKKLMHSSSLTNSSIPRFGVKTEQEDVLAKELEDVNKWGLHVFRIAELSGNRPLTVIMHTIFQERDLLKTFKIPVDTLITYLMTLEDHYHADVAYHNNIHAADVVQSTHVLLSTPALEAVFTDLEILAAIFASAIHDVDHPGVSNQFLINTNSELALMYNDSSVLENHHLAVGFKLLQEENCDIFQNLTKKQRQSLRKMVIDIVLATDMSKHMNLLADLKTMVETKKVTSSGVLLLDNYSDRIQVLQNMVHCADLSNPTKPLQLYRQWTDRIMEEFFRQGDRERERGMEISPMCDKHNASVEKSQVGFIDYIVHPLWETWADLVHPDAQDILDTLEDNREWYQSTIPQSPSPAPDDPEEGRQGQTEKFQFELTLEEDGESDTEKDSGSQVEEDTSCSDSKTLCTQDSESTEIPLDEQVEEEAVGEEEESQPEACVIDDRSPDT
Sequence of Bile salt export pump (O95342 whole entry): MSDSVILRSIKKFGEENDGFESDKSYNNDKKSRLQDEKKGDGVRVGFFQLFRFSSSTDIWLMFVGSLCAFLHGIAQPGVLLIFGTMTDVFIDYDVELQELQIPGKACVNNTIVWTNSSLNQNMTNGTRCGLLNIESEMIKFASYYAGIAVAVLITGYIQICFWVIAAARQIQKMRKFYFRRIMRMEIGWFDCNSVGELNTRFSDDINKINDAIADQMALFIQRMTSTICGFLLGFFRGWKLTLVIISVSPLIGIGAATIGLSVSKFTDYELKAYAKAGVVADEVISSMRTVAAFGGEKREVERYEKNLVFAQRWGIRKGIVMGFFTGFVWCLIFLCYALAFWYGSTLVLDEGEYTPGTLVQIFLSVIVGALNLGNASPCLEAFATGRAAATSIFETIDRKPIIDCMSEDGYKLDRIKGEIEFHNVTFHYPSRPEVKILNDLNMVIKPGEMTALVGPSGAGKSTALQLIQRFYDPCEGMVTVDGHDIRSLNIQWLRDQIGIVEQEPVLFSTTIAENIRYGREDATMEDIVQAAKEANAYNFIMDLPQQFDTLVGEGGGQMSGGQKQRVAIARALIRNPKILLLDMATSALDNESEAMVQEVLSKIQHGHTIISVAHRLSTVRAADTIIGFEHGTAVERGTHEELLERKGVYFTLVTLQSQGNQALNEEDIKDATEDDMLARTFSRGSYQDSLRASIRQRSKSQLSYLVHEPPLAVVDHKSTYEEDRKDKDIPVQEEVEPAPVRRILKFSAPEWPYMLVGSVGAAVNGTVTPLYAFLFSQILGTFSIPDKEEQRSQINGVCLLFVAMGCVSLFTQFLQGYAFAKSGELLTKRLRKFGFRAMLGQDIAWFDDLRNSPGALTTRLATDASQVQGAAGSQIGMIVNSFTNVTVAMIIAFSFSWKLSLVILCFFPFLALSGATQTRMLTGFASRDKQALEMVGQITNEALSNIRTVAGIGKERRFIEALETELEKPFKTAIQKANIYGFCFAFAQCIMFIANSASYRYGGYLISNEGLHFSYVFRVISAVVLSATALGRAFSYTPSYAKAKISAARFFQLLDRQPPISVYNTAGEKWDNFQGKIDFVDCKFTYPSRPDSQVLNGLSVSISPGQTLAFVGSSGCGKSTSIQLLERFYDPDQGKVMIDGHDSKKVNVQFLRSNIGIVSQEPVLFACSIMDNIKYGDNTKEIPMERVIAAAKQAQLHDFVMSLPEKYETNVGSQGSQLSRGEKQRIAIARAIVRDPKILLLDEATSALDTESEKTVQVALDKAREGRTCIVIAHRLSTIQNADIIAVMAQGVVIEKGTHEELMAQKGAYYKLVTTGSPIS
Sequence of D(3) dopamine receptor (P35462 whole entry): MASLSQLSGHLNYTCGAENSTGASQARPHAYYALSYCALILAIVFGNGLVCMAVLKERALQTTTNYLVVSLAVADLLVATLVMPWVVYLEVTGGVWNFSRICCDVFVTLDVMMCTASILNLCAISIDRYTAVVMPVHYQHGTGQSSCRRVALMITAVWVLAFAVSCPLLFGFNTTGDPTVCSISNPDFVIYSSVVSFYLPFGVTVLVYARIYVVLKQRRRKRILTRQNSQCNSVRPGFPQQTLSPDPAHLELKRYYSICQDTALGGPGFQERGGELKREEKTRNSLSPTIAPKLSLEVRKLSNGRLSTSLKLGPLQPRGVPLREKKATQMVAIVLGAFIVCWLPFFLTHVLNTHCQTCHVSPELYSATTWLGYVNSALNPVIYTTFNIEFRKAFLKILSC

`COc1cccc2c1C(=O)c1c(O)c3c(c(O)c1C2=O)C[C@@](O)(C(=O)CO)C[C@@H]3O[C@H]1C[C@H](N)[C@H](O[C@@H]2CCCCO2)[C@H](C)O1` [PIRARUBICIN] showed an AC50 [1] greater than 30 µM.

Work on `O=c1[nH]cc(F)c(=O)[nH]1` [FLUOROURACIL] yielded an AC50 (Adenosine receptor A1) greater than 30 µM, an AC50 [2] greater than 30 µM and an AC50 [3] greater than 30 µM. It also gave an AC50 [4] greater than 30 µM, an AC50 [1] greater than 30 µM and an AC50 [5] greater than 30 µM. The AC50 [6] was greater than 30 µM.

`CC(C)Nc1cccnc1N1CCN(C(=O)c2cc3cc(NS(C)(=O)=O)ccc3[nH]2)CC1` [DELAVIRDINE] was tested, and the AC50 [1] was 16 µM.

`CO[C@@]1(NC(=O)C(C(=O)O)c2ccc(O)cc2)C(=O)N2C(C(=O)O)=C(CSc3nnnn3C)CO[C@@H]21` (some centres undefined) [MOXALACTAM] showed an AC50 [1] greater than 30 µM.

Work on `CNC1(c2ccccc2Cl)CCCCC1=O` (centres undefined) [KETAMINE] yielded an AC50 [1] greater than 30 µM.

`Cc1cccc(C)c1NC(=O)c1cc(S(N)(=O)=O)c(Cl)cc1O` [XIPAMIDE] was tested, and the AC50 [1] was greater than 30 µM.

For `C=CCOc1ccc(CC(=O)O)cc1Cl` [ALCLOFENAC], the AC50 (Bile salt export pump) was greater than 300 µM and the AC50 [1] was greater than 30 µM.

For `CN(C)CCC=C1c2ccccc2CCc2ccccc21` [AMITRIPTYLINE], the AC50 (Bile salt export pump) was 180 µM, the AC50 (Adenosine receptor A1) was greater than 30 µM and the AC50 [7] was 9.1 µM. For the same compound, the AC50 [2] was greater than 30 µM, the AC50 [3] was greater than 30 µM and the AC50 [4] was greater than 30 µM. It also gave an AC50 [8] of 8.7 µM, an AC50 [9] greater than 30 µM and an AC50 [10] greater than 30 µM. For the same compound, the AC50 [5] was greater than 30 µM and the AC50 (D(3) dopamine receptor) was 0.44 µM.

Work on `Cc1ccc(C(C)C)c(O)c1` [THYMOL] yielded an AC50 (Bile salt export pump) greater than 300 µM, an AC50 [1] greater than 30 µM and an AC50 [5] of 120 µM.

For `N#Cc1ccnc(N2C(=O)CC[C@H]2C(=O)N(c2cncc(F)c2)[C@H](C(=O)NC2CC(F)(F)C2)c2ccccc2Cl)c1` [IVOSIDENIB], the AC50 (Bile salt export pump) was 79 µM and the AC50 [1] was greater than 30 µM.

Work on `C#CCN(C)Cc1ccccc1` [PARGYLINE] yielded an AC50 [7] greater than 30 µM, an AC50 [11] greater than 30 µM and an AC50 [8] greater than 30 µM. The AC50 [1] was greater than 30 µM, the AC50 [9] was greater than 30 µM and the AC50 [10] was greater than 30 µM.

With `C[C@@H](CN1CC(=O)NC(=O)C1)N1CC(=O)NC(=O)C1` [DEXRAZOXANE] the AC50 [1] was greater than 30 µM.

`O=c1[nH]c2ccccc2n1CCN1CCN(c2cccc(C(F)(F)F)c2)CC1` [FLIBANSERIN] showed an AC50 (Bile salt export pump) of 29 µM and an AC50 [1] of 13 µM.

`N=C(N)NCC1COc2ccccc2O1` (centres undefined) [GUANOXAN] showed an AC50 [1] greater than 30 µM.

With `CC(C)(Oc1ccc(Cl)cc1)C(=O)NC(=O)NCN1CCOCC1` [PLAFIBRIDE] the AC50 [1] was greater than 30 µM.

`O=C1[C@@H]2[C@H]3CC[C@H](C3)[C@@H]2C(=O)N1C[C@@H]1CCCC[C@H]1CN1CCN(c2nsc3ccccc23)CC1` [LURASIDONE] gave an AC50 (Bile salt export pump) of 13 µM, an AC50 (Adenosine receptor A1) greater than 30 µM and an AC50 [3] greater than 10 µM. It also gave an AC50 [4] greater than 30 µM, an AC50 [11] of 0.071 µM and an AC50 [8] greater than 30 µM. For the same compound, the AC50 [9] was greater than 30 µM, the AC50 [10] was greater than 30 µM and the AC50 [5] was greater than 30 µM. The AC50 [6] was greater than 30 µM and the AC50 (D(3) dopamine receptor) was 0.43 µM.

Work on `CC#CC(=O)N1CCC[C@H]1c1nc(-c2ccc(C(=O)Nc3ccccn3)cc2)c2c(N)nccn12` [ACALABRUTINIB] yielded an AC50 [1] greater than 30 µM and an AC50 [5] greater than 30 µM.
